Literature values, collected in patent publication US20030198619A1, “Formulation and dosage form for increasing oral bioavailability of hydrophilic macromolecules” (priority 2001, published 2003).
Read-outs that look alike come from different tables or passages of the source.

What was measured:
[1] = in vivo

oral bioavailability [1] | elimination half-life in urine (after oral administration) | oral bioavailability (in humans) | elimination half-life (mean value following IV injection) | Compound
about 0.15% |  |  |  | NC(=O)CC[C@@H]1NC(=O)[C@H](Cc2ccccc2)NC(=O)[C@H](Cc2ccc(O)cc2)NC(=O)CCSSC[C@@H](C(=O)N2CCC[C@H]2C(=O)N[C@H](CCCN=C(N)N)C(=O)NCC(N)=O)NC(=O)[C@H](CC(N)=O)NC1=O [dDAVP, Desmopressin]
 | 4.8 h | approximately 3% | 24 h | pentosan polysulfate sodium [PPS]
